Reference: US10526311B2 (ASTEX THERAPEUTICS LIMITED, priority 2015, dated 2020)
Where two headings read alike, the source gives them in different places.

Key:
[1] = system: SN40R2; assay: Protocol B: SN40R2 CellTiter-Glo cell viability; conditions: 72 h
Description: Protocol B: SJSA-1 and SN40R2 Assays
(§1) The CellTiter-Glo® Luminescent Cell Viability Assay is a homogeneous method to determine the number of viable cells in culture based on quantitation of the ATP present, which signals the presence of metabolically active cells. […] 100 μl of CTG reagent (Promega #G7573) was added to all wells and luminescence was measured on the topcount. The EC50 values were determined from a sigmoidal 4 parameter curve fit using XLfit in conjunction with Activity Base (IDBS; Guildford, Surrey, UK).

[2] = system: SN40R2 (MDM2 amplified, p53 mutated osteosarcoma); assay: Protocol A: SN40R2 growth inhibition (SRB); conditions: 72 h
Description: Protocol A: SJSA-1 and SN40R2 Assays
(§2) Following incubation with the SRB dye at room temperature for 30 min, the plates were washed with 1% acetic acid and left to dry. […] The GI50 was calculated by non-linear regression analysis of the data using Prism v4.0 statistical software.

[3] = target: MDM2-p53 interaction (in vitro translated MDM2, biotinylated IP3 peptide) (Homo sapiens, UniProt Q00987); assay: MDM2-p53 interaction 96-well plate binding assay (ELISA); conditions: @ 0.0010 μM; read-out: MDM2 % @ concentration
Chain of MDM2-p53 interaction (in vitro translated MDM2, biotinylated IP3 peptide) (Q00987 whole entry): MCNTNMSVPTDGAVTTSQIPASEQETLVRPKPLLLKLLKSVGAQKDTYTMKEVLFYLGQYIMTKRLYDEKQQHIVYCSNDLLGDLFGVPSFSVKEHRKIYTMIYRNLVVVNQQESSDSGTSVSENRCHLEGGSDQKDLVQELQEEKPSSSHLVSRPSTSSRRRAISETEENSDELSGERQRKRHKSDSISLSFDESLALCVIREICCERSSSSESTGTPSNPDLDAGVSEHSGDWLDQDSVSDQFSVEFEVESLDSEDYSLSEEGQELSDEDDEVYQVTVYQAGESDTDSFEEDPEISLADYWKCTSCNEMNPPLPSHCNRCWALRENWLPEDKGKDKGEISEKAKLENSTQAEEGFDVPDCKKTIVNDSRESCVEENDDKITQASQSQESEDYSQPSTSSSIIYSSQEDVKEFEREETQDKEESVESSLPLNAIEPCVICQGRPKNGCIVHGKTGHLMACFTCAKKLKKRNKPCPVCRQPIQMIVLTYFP
Description: The ELISA assay was performed in streptavidin coated plates which were preincubated with 200 μl per well of 1 μg ml^−1 biotinylated IP3 peptide. The plates were ready to use for MDM2 binding after washing the plate with PBS.
The unbound secondary antibody was removed by washing three times with TBS-Tween. The bound HRP activity was measured by enhanced chemiluminesence (ECL™, Amersham Biosciences) using the oxidation of the diacylhydrazide substrate, luminol, to generate a quantifiable light signal. The percentage of MDM2 inhibition at a given concentration is calculated as the [1−(RLU detected in the compound treated sample−RLU negative DMSO control)÷(RLU of DMSO positive and negative controls)]×100 or as the (RLU detected in the compound treated sample÷RLU of DMSO controls)×100. The IC50 was calculated using a plot of % MDM2 inhibition vs concentration and is the average of two or three independent experiments.

[4] = system: SJSA-1 (MDM2 amplified, p53 wild-type osteosarcoma); assay: Protocol A: SJSA-1 growth inhibition (SRB); conditions: Homo sapiens, SJSA-1, 72 h
Description: Protocol A: SJSA-1 and SN40R2 Assays
as §2

[5] = system: SJSA-1; assay: Protocol B: SJSA-1 CellTiter-Glo cell viability; conditions: Homo sapiens, SJSA-1, 72 h, read-out: SJSA1 IC50 (Protocol B), SJSA-1 cells, CellTiter-Glo, 72 hrs
Description: Protocol B: SJSA-1 and SN40R2 Assays
as §1

SMILES | IC50 ([1]; read-out: SN40R2 IC50 (Protocol B)) | IC50 ([2]; read-out: SN40R2 IC50 (Protocol A)) | inhibition at 0.001 µM [3] | IC50 ([4]; read-out: SJSA-1 IC50 (Protocol A), SJSA-1 cells, SRB, 72 hrs) | IC50 [5] | IC50 ([1]; read-out: SN40R2 IC50 (μM) (Protocol B)) | IC50 ([2]; read-out: SN40R2 IC50 (μM) (Protocol A)) | IC50 ([4]; read-out: SJSA-1 IC50 (μM) (Protocol A), SJSA-1, Protocol A (SRB), 72 hrs)
CC(=O)N1CCC(C(C)(O)c2cc(F)c3c(c2)C(=O)N(Cc2ccc(Cl)cn2)[C@@]3(OCC2(C#N)CC2)c2ccc(Cl)cc2)CC1 (single isomer, unassigned) [Example 301] | 12 µM | 28 µM | 75% | 0.07 µM | 0.036 µM |  |  | 
CCC(O)(c1cc(F)c2c(c1)C(=O)N(Cc1ncc(Cl)cn1)[C@@]2(O[C@H]1CCOC1)c1ccc(Cl)cc1)C1(F)CCNCC1 (single isomer, unassigned) [Example 541] |  |  |  |  |  | 10 µM | 13 µM | 0.19 µM
